5 compounds from US10357537B2, “Cyclotides as immunosuppressive agents” (priority 2011, dated 2019) can be followed below.

Data set [1] concerns CD3 purified T-lymphocytes. Briefly: Anti-proliferative CFSE assay on magnetic-purified CD3+ lymphocytes. The settings on record: for IC50: read-out: IC50 (μM) ± STDEV, inhibition of CD3 purified T-lymphocyte proliferation, CD3 purified lymphocytes, anti-CD3/28 mAbs, 72 h. As for the experimental part: (§1) The anti-proliferative effect of cyclotide mutants/variants was tested according to Example 5. […] Afterwards the cell proliferation was assessed by analysing cell division using flow cytometric-based histogram analysis.

Data set [2] relates to activated human primary PBMC. The experiment in a line: Anti-proliferative CFSE cell division assay on anti-CD3/CD28-activated PBMC. Particulars: for IC50: read-out: IC50 (μM) ± STDEV, inhibition of PBMC proliferation, PBMCs, anti-CD3/28 mAbs, 72 h, n.a. = not active; for cytotoxicity in PBMC proliferation assay: at 14 μM. As for the experimental part: Human peripheral blood mononuclear cells (PBMC) were isolated from the blood of healthy adult donors obtained from the Blood Transfusion Centre (University Medical Center, Freiburg, Germany). Venous blood was centrifuged on a LymphoPrep™ gradient (density: 1.077 g/cm^3, 20 min, 500×g, 20° C.; Progen, Heidelberg, Germany). Afterwards cells were washed twice with medium and cell viability and concentration was determined using the trypan blue exclusion test. PBMC were cultured in RPMI 1640 medium supplemented with 10% heat-inactivated fetal calf serum (PAA, Coelbe, Germany), 2 mM L-glutamine, 100 U/mL penicillin and […] (all from Invitrogen, Karlsruhe, Germany). The cells were cultured at 37° C. in a humidified incubator with a 5% CO2/95% air atmosphere. All experiments conducted on human material were approved by the Ethics committee of the University of Freiburg.
(§2) After cultivation, the cells were assessed in bioassays as described in the text.
For cell proliferation and cell division tracking analysis PBMC were harvested and washed twice in cold PBS and resuspended in PBS at a concentration of 5×10^6 cells/mL. Cells were incubated for 10 min at 37° C. with carboxyfluorescein diacetate succinimidyl ester (CFSE; 5 μM: Sigma-Aldrich, Taufkirchen, Germany). The staining reaction was stopped by washing twice with complete medium. Afterwards, the cell division progress was analysed using flow cytometric analysis.
as §1

Data set [3] relates to activated human primary PBMC. As for the experimental part:
as §2
The levels of apoptosis were determined using the annexin V-FITC apoptosis detection kit (eBioscience, Frankfurt, Germany) according to the manufacturer's instructions. After annexin V staining, propidium iodide solution (PI; eBioscience) was added and the cells were incubated in the dark, followed by a flow cytometric analysis to determine the amount of apoptosis and necrosis. CPT (30 μg/mL) and Triton-X 100 (0.5%) was used as positive controls for apoptosis and necrosis, respectively.
Cellular apoptotic and necrotic hallmarks were measured by using inter-nucleosomal DNA fragmentation (subG1^+ cells) assay and phosphatidylserine surface analysis through a single and combinatory annexin V and propidium iodide staining. This double staining process allowed the discrimination between viable (annexin^−/PI^−), apoptotic (annexin^+/PI^− and annexin^+/PI^+) or necrotic (annexin^−/PI^+) cells.

Where two headings read alike, the source gives them in different places. Bridge positions count the residues as written; N and C are the ends. Peptide text beside a SMILES is read from it.

As for `CC[C@H](C)[C@@H]1NC(=O)[C@@H]2CCCN2C(=O)[C@H](Cc2c[nH]c3ccccc23)NC(=O)[C@H]([C@@H](C)O)NC(=O)[C@@H]2CSSC[C@@H]3NC(=O)[C@H]([C@@H](C)O)NC(=O)[C@H](CCC(=O)O)NC(=O)CNC(=O)[C@@H]4CSSC[C@H](NC(=O)CNC(=O)[C@@H]5CCCN5C(=O)[C@H]([C@@H](C)O)NC(=O)[C@H](CC(N)=O)NC(=O)[C@H](CSSC[C@H](NC1=O)C(=O)N[C@@H]([C@@H](C)O)C(=O)N[C@@H](CCCNC(=N)N)C(=O)N[C@@H](CC(=O)O)C(=O)NCC(=O)N[C@@H](CC(C)C)C(=O)N1CCC[C@H]1C(=O)N[C@@H](C(C)C)C(=O)N4)NC(=O)[C@H]([C@@H](C)O)NC(=O)CNC(=O)CNC(=O)[C@H](Cc1ccccc1)NC3=O)C(=O)N[C@@H](CO)C(=O)N2` [Kalata B2] (cyclo(CFGGTCNTPGCSCTWPICTRDGLPVCGET); disulfide 1-13, 6-18, 11-26), the results for the IC50 in data set [1] and in data set [2] (cyclotides 1.8-14 μM) were 0.6 ± 0.02 µM and 0.2 ± 0.1 µM, respectively.

`CC(C)C[C@@H]1NC(=O)[C@H](CCCCN)NC(=O)[C@H](CC(N)=O)NC(=O)[C@H](CCCNC(=N)N)NC(=O)[C@H]([C@@H](C)O)NC(=O)[C@@H]2CSSC[C@@H]3NC(=O)[C@H]([C@@H](C)O)NC(=O)CNC(=O)CNC(=O)[C@H](C(C)C)NC(=O)[C@@H]4CSSC[C@H](NC(=O)[C@H](CCCCN)NC(=O)[C@H](CSSC[C@H](NC(=O)[C@H](C(C)C)NC(=O)[C@@H]5CCCN5C1=O)C(=O)NCC(=O)N[C@@H](CCC(=O)O)C(=O)N[C@@H]([C@@H](C)O)C(=O)N4)NC(=O)CNC(=O)[C@@H]1CCCN1C(=O)[C@H]([C@@H](C)O)NC(=O)[C@H](CC(N)=O)NC3=O)C(=O)N[C@@H](CO)C(=O)N[C@@H](Cc1c[nH]c3ccccc13)C(=O)N1CCC[C@H]1C(=O)N[C@@H](C(C)C)C(=O)N2` [T20K, G1K, Kalata T20K, G1K] (cyclo(CGETCVGGTCNTPGCKCSWPVCTRNKLPV); disulfide 1-15, 5-17, 10-22): in data set [1] (at 14 μM), the “cytotoxicity in CD3 purified lymphocyte proliferation assay” value was “(cytotoxic)”. The IC50 in data set [1] is 1.1 ± 0.7 µM. In addition, the “cytotoxicity in PBMC proliferation assay” value is “(cytotoxic)” in data set [2] and “cytotoxic” in data set [2] (listed as T20K+G1K).

Consider `CC[C@@H](C)[C@H]1NC(=O)[C@H]2CCCN2C(=O)[C@@H](Cc2c[nH]c3ccccc23)NC(=O)[C@@H]([C@H](C)O)NC(=O)[C@H]2CSSC[C@H]3NC(=O)[C@@H]([C@H](C)O)NC(=O)[C@@H](CCC(=O)O)NC(=O)CNC(=O)[C@H]4CSSC[C@@H](NC(=O)CNC(=O)[C@H]5CCCN5C(=O)[C@@H]([C@H](C)O)NC(=O)[C@@H](CC(N)=O)NC(=O)[C@@H](CSSC[C@@H](NC1=O)C(=O)N[C@H]([C@H](C)O)C(=O)N[C@H](CCCNC(=N)N)C(=O)N[C@H](CC(=O)O)C(=O)NCC(=O)N[C@H](CC(C)C)C(=O)N1CCC[C@@H]1C(=O)N[C@H](C(C)C)C(=O)N4)NC(=O)[C@@H]([C@H](C)O)NC(=O)CNC(=O)CNC(=O)[C@@H](Cc1ccccc1)NC3=O)C(=O)N[C@H](CO)C(=O)N2` [all-D kalata B2, D-kalataB2], for which the IC50 was determined as 2.9 ± 0.4 µM in data set [1] and 2.3 ± 0.8 µM in data set [2] (cyclotides 1.8-14 μM).

For the compound `CC[C@H](C)[C@H](NC(=O)CN)C(=O)NCC(=O)N[C@@H](C)C(=O)N[C@H](C(=O)N[C@@H](CC(C)C)C(=O)N[C@@H](CCCCN)C(=O)N[C@H](C(=O)N[C@@H](CC(C)C)C(=O)N[C@H](C(=O)N[C@H](C(=O)NCC(=O)N[C@@H](CC(C)C)C(=O)N1CCC[C@H]1C(=O)N[C@@H](C)C(=O)N[C@@H](CC(C)C)C(=O)N[C@H](C(=O)N[C@@H](CO)C(=O)N[C@@H](Cc1c[nH]c2ccccc12)C(=O)N[C@H](C(=O)N[C@@H](CCCCN)C(=O)N[C@@H](CCCNC(=N)N)C(=O)N[C@@H](CCCCN)C(=O)N[C@@H](CCCNC(=N)N)C(=O)N[C@@H](CCC(N)=O)C(=O)N[C@@H](CCC(N)=O)C(N)=O)[C@@H](C)CC)[C@@H](C)CC)[C@@H](C)O)[C@@H](C)O)C(C)C)C(C)C` [melittin], in data set [2] (CFSE, flow cytometry, extract 50-100 μg/mL, cyclotides 1.8-14 μM, melittin 0.05-1.6 μM), the “cell division / proliferation of activated PBMC (in words)” value is on record as “decrease of proliferating PBMC at 1.6 μM”. Besides, the induction of necrosis result in data set [3] (kalata B1 14 μM vs untreated control, Triton-X 100, melittin high concentrations) was “slight effect on necrosis induction at high concentrations”. The induction of apoptosis result in data set [3] (kalata B1 1.8-14 μM, CPT 30 μg/mL, melittin up to 1.6 μM) is “mainly due to the induction of apoptosis”.

With Triton-X 100, the induction of necrosis result in data set [3] is on record as “significantly increased the fractions of these cells”.
